Where two headings read alike, the source gives them in different places.
Columns and labels:
Assay type in all cases: biochemical
Pf-Mut (L550V) cFRS = molecular target: T1, Pf-Mut (L550V) cFRS (Plasmodium falciparum, UniProt Q8I246, L550V); assay: malachite green-based aminoacylation assay, Pf-Mut (L550V) cFRS; conditions: aminoacylation activity; read-out: cFRS IC50, Pf mutant (L550V)
T1 sequence (Q8I246 1-575 L550V): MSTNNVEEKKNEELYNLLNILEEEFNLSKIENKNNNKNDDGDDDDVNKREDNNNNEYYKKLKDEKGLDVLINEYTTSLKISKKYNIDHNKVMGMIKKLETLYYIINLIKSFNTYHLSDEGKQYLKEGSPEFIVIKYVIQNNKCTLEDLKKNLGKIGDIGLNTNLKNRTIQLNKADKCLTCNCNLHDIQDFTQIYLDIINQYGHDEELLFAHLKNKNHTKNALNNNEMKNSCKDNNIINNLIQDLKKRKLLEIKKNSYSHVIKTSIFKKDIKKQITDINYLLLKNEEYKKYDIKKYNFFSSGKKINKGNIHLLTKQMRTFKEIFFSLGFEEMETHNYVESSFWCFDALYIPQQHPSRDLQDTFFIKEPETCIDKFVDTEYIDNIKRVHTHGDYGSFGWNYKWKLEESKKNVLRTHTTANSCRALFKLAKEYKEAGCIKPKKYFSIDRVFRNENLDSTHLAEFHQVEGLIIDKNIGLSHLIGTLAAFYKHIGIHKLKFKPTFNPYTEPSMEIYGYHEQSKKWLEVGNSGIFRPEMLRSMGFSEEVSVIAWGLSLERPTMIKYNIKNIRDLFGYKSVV
T1 sequence (Q8IIW2 1-623 partner): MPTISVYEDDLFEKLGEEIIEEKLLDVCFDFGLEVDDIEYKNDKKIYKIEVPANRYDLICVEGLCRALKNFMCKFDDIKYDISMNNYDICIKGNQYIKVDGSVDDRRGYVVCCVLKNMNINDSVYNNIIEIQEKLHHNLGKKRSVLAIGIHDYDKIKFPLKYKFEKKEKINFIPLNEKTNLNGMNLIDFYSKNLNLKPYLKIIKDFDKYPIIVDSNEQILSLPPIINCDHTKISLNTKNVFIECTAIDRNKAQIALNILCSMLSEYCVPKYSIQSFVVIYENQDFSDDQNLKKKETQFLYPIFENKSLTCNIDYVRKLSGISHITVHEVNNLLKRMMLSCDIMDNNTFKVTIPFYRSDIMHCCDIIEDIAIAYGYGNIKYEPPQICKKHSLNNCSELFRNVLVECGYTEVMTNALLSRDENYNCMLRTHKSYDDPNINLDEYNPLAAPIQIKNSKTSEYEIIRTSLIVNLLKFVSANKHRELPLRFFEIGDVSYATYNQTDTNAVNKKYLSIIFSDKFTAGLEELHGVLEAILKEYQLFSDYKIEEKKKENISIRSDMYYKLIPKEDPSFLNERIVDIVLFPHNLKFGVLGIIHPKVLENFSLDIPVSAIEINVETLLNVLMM
From the text: (§1) EC50 assays were run as described in Int'l Pub Nos. WO 2015070204, WO 2018175385, and Kato, N, et al. Nature 538 (2016): 344-349, which are hereby incorporated by reference in its entirety. The inhibition of the aminoacylation activity of Pf (Plasmodium falciparum), Pv (Plasmodium vivax), Hs (Human) and Pf-Mut (L550V) cFRS enzymes by Compound 1 are illustrated in FIG. 1.
(§2) The enzymatic activity of purified heterodimeric PfcFRS using malachite green-based aminoacylation assays with substrates L-Phe and ATP was also measured as described in Cestari, I. et al., J Biomol. Screen. 18 (2013): 490-497 and Kato, N, et al. Nature 538 (2016): 344-349, which are hereby incorporated by reference in its entirety. […] Enzymatic reactions (50 μl total volume) were performed in clear, flat-bottomed, 96-well plates (Costar 96-well standard microplates). The reaction mixture was incubated for 2 h at 37° C. The reaction was stopped by adding 12.5 μl of malachite green solution to the reaction mixture and levels of inorganic phosphate (Pi) were detected after incubation of 5 min at room temperature. Absorbance was the measured at 620 nm using a Spectramax M2 (Molecular Devices). Reactions without FRS enzyme were performed as background controls, values of which were subtracted from the reactions with enzyme. […]

PfcFRS = molecular target: T2, PfcFRS (Plasmodium falciparum, UniProt Q8I246); assay: malachite green-based aminoacylation assay, PfcFRS
T2 sequence (Q8I246 1-575): T1 sequence (Q8I246 1-575 L550V)
T2 sequence (Q8IIW2 1-623 partner): T1 sequence (Q8IIW2 1-623 partner)
From the text: as §1
The enzymatic activity of purified heterodimeric PfcFRS using malachite green-based aminoacylation assays with substrates L-Phe and ATP was also measured as described in Cestari, I. et al., J Biomol. Screen. 18 (2013): 490-497 and Kato, N, et al. Nature 538 (2016): 344-349, which are hereby incorporated by reference in its entirety. […] Enzymatic reactions (50 μl total volume) were performed in clear, flat-bottomed, 96-well plates (Costar 96-well standard microplates). The reaction mixture was incubated for 2 h at 37° C. The reaction was stopped by adding 12.5 μl of malachite green solution to the reaction mixture and levels of inorganic phosphate (Pi) were detected after incubation of 5 min at room temperature. Absorbance was the measured at 620 nm using a Spectramax M2 (Molecular Devices). Reactions without FRS enzyme were performed as background controls, values of which were subtracted from the reactions with enzyme. Compound 1 was added to the aminoacylation assay reaction buffer in varying concentrations ranging from 0.1 nM to 10,000 nM.
Data sets were then globally fitted to the appropriate model (with equations (1) and (2) used for competitive and mixed inhibition respectively).
where v is the reaction rate, Km is the Michaelis-Menten constant, Vmax is the maximum reaction velocity, Ki is the inhibitor constant, [I] is the concentration of inhibitor (Compound 1) and [S] is the concentration of substrate.
The data is shown for three replicates as the mean±SD in FIGS. 2A and 2B. […] Specifically, enzyme activity was evaluated at a fixed saturating concentration of one substrate (L-Phe or ATP) and varying concentrations the other at different inhibitor concentrations. The experimental data were fit to the Michaelis-Menten equation that produced Lineweaver-Burk plots as described above. […] The mode of inhibition was then analyzed using ATP as the variable-concentration substrate (FIG. 2B). The data were then fit to the modified high-substrate inhibition Michaelis-Menten equation that led to the corresponding double-reciprocal plot and its inhibition profile.

[1] = molecular target: T3, Pv (Plasmodium vivax) cFRS (Plasmodium vivax, UniProt A5K9S0); assay: malachite green-based aminoacylation assay, PvcFRS; conditions: aminoacylation activity
T3 construct: Full-length PvcFRS was also purified according to the same protocol; His6 (encoded by vector pETM11); made in house; host or cells: E. coli strain B834
From the text: as §1, §2

T3 sequence (A5K9S0 whole entry): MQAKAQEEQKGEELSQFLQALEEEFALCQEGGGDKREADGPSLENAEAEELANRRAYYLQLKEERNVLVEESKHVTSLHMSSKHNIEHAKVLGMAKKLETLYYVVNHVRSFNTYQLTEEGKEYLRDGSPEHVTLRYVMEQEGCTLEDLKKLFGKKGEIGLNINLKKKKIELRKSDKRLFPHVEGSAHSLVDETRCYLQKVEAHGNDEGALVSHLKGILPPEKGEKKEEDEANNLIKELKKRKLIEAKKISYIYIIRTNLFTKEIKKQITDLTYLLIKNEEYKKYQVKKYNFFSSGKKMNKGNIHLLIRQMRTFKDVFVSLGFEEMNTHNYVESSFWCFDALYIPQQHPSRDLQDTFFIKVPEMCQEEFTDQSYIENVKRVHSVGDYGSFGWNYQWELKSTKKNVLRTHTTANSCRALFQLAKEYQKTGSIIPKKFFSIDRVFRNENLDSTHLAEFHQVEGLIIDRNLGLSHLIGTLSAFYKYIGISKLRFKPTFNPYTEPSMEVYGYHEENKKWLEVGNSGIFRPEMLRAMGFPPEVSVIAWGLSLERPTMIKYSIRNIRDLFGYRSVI
T3 sequence (A5K464 whole entry, further chain): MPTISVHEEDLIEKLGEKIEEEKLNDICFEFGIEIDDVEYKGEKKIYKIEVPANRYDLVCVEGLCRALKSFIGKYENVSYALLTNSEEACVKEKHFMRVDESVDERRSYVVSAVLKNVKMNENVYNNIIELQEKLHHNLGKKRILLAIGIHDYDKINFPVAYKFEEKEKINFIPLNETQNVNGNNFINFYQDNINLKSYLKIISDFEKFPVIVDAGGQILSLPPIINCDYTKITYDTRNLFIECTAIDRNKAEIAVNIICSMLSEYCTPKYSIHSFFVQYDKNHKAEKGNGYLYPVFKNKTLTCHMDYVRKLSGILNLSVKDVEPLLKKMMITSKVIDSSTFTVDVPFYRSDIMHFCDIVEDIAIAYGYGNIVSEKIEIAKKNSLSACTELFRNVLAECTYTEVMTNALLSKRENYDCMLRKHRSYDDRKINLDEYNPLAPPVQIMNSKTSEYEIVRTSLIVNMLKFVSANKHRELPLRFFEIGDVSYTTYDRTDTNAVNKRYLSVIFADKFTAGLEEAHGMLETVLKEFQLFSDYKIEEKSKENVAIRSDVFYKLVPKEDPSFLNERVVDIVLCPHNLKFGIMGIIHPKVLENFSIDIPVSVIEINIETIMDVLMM

With `COC[C@@H]1[C@H](c2ccc(C#Cc3ccccc3)cc2)[C@@H]2CN(C(=O)Nc3ccc(OC4CC4)cc3)C[C@@H](O)[C@@H](O)CN12` [Compound 1, (3S,4R,8R,9R,10S)—N-(4-cyclopropoxyphenyl)-3,4-dihydroxy-10-(methoxymethyl)-9-(4-(phenylethynyl)phenyl)-1,6-diazabicyclo[6.2.0]decane-6-carboxamide] as the molecule, how does the IC50 (Pf-Mut (L550V) cFRS) read?
The IC50 was 1 µM.

What about the “mode of inhibition with respect to ATP” value (PfcFRS; Lineweaver-Burk analysis) of the same molecule?
Its value is “non-competitive inhibitor”.

What about the “mode of inhibition with respect to L-Phe” value (PfcFRS; Lineweaver-Burk analysis) of the same molecule?
Its value is “competitive inhibitor”.

What about the IC50 (PfcFRS; aminoacylation activity, read-out: cFRS IC50, Pf) of the same molecule?
The IC50 was 0.012 µM.

And the Ki (PfcFRS; global competitive inhibition model, saturating ATP, varying L-Phe, read-out: Ki with respect to L-Phe)?
The Ki was 0.006 ± 0.002 µM.

And the Ki (PfcFRS; non-competitive inhibition model, saturating L-Phe, varying ATP, read-out: Ki with respect to ATP)?
The Ki was 0.01 ± 0.005 µM.

What about the IC50 [1] of the same molecule?
The IC50 was 0.025 µM.

— patent publication US20230279018A1, “AP[…] INHIBITION” (priority 2020, published 2023)
